Reference: PMC8123395, “Aggregation and Its Influence on the Bioactivities of a Novel Antimicrobial Peptide, Temporin-PF, and Its Analogues” (International Journal of Molecular Sciences, 2021)
Values after ≈ are worked out from the molar mass of the structure shown. Where two headings read alike, the source gives them in different places. Non-standard residues stand in square brackets, D forms with d. Residues, ends and D or L forms follow the SMILES beside them. No end group written: not given here.

What was measured:
[1] = test system: Enterococcus faecalis (NCTC 12697); type: cell-based
Method: (§1) The minimum inhibitory concentration (MIC) and minimum bactericidal concentration (MBC) of peptides against the selected microorganisms were determined using the broth-dilution method, as described in the previous study. […] were used in the assay: Gram-positive bacteria Staphylococcus aureus (NCTC 10788), Enterococcus faecalis (NCTC 12697), and methicillin-resistant S. aureus (MRSA) (NCTC 12493); Gram-negative bacteria Escherichia coli (NCTC 10418), Pseudomonas aeruginosa (ATCC 27853), and Klebsiella pneumoniae (ATCC 43816). All the strains were cultured in Mueller Hinton Broth (MHB), pH 7.4 (Oxiod, Basingstoke, UK). Each peptide was tested at the final concentration from 128 to 1 µM in two-fold dilution. Norfloxacin was applied as the positive control.

[2] = test system: Escherichia coli (NCTC 10418); type: cell-based
Method: as §1

[3] = test system: Klebsiella pneumoniae (ATCC 43816); type: cell-based
Method: as §1

[4] = test system: Pseudomonas aeruginosa (ATCC 27853); type: cell-based
Method: as §1

[5] = test system: Staphylococcus aureus (NCTC 10788); type: cell-based
Method: as §1

[6] = test system: methicillin-resistant S. aureus (MRSA) (NCTC 12493); type: cell-based
Method: as §1

[7] = test system: MRSA biofilm; type: cell-based; conditions: 24 h
Method: (§2) MBIC and MBEC assays were performed as previously described with minor modifications. For the MBIC assay, a suspension of broth diluted bacteria culture (5 × 10^5 CFU/mL) was incubated with the peptide solutions at 37 °C for 24 h. For MBEC assay, 100 μL inoculum culture was seeded to a 96-well-flat-bottom plate and incubated at 37 °C for 48 h to obtain the mature biofilm. Afterwards, the plate was washed by sterile phosphate-buffered saline (PBS; Sigma-Aldrich, Gillingham, UK) twice and treated with a series peptide solution at 37 °C for 24 h. Then, all the plates were washed with PBS and stained by 100 μL 0.1% crystal violet solution (Sigma-Aldrich, Gillingham, UK), and further dissolved by 30% acetic acid (Sigma-Aldrich, Gillingham, UK). The absorbance of each well was recorded by Synergy HT plate reader (Biotech, Minneapolis, MN, USA) at 595 nm.

[8] = test system: MRSA mature biofilm; type: cell-based
Method: as §2

[9] = test system: S. aureus biofilm; type: cell-based; conditions: 24 h
Method: as §2

[10] = test system: S. aureus mature biofilm; type: cell-based
Method: as §2

[11] = Circular dichroism, helix content by BeStSel; type: physicochemical; conditions: CD, room temperature, BeStSel analysis; for Helix Content % DPPC: 50 μM peptide in 3 mM DPPC SUVs (erythrocyte membrane mimic); for Helix Content % DPPG/DPPE: 50 μM peptide in 3 mM DPPG/DPPE (88:12) SUVs (bacterial membrane mimic); for Helix Content % 50% TFE: 50 μM peptide in 50% TFE/10 mM NH4AC, three scans averaged
Method: Figure 8 CD spectra of TPF and the analogs (50 μM) prepared in 10 mM NH4AC, 50% TFE/10 mM NH4AC, 3 mM DPPG/DPPE (88:12) SUVs, and 3 mM DPPC SUVs. The spectra were averaged over three consecutive scans, and the solvent CD signal was subtracted.
The determination of the secondary structure of peptides was conducted using a JASCO J-815 CD Spectropolarimeter (JASCO Inc., Tokyo, Japan) as described in the previous study. Then, 50 μM of each peptide sample was prepared in the aqueous 10 mM ammonium acetate (NH4Ac; Sigma-Aldrich, Gillingham, UK) buffer, 50% (v/v) 2,2,2-trifluoroethanol (TFE; Sigma-Aldrich, Gillingham, UK), and 3 mM DPPG:DPPE (88:12) and DPPC small unilamellar liposomes/vesicles (SUVs) that were used to mimic the bacterial and mammalian erythrocyte cell membranes, respectively. The liposome was hydrated in deionized water and then sonicated for 15 min with an interval 30 s in an ice bath for generating SUVs. Samples were loaded in a 1-mm thickness quartz cuvette and analyzed at room temperature with the following parameters: scan range of 190–250 nm, scanning speed of […], 1 nm bandwidth, and 0.5 nm data pitch. The spectra were obtained by averaging data from three scans. The CD spectra were analyzed by BeStSel (http://bestsel.elte.hu/index.php, accessed on 16 May 2020) for the determination of secondary structure content.

[12] = RP-HPLC retention order of mixed peptides (overall hydrophobicity); type: physicochemical; conditions: peptides mixed in equal ratio and subjected to RP-HPLC; Supplementary Figure S4
Method: All peptides were chemically synthesized and purified by RP-HPLC. They were further mixed with an equal ratio and subjected to RP-HPLC. […] Subsequently, all peptides (1 mg/mL) were dissolved in a series of widely used culture media (Figure 2).
N-terminal Phe of temporin was believed to participate in the packaging of “head-tail” oligomerization. […] Furthermore, Trp/D-Trp substitution carried out on des-Phe1 TPF enhanced the peptide aggregation. […] It may be related to the decrease of the helical content; however, it could also be caused by the change of aggregation effects. Previous studies have shown that AMPs with strong antimicrobial activity are present as monomers in an aqueous solution and aggregate on the membrane to disrupt the bacterial cell membrane. […] It has been proposed that some aggregation effects of AMPs could limit the interaction of the peptide with its target, thereby reducing the antibacterial efficacy. In the previous study, the zipper-like motif is associated with the bioactivities as well as the assembly in the LPS micelles, which was considered to arise from hydrophobic interactions mainly. However, the overall hydrophobicity of Trp/D-Trp substituted analogs is less than that of des-Phe1 TPF, as estimated by RP-HPLC analysis. We hypothesize that the enhanced assembly seen for Trp/D-Trp substituted analogs might be related to the increased content of aromatic residues, because it could promote the strength of π stacking or cation-π type interaction. However, the true relation has not been fully clarified so far, and the capability of aromatic moieties to promote aggregation could also be affected by the hydrophobicity, position, and the neighboring side chains in their three-dimensional conformation.

[13] = test system: horse erythrocytes; experiment: Hemolysis test; type: cell-based; conditions: 2% horse erythrocyte suspension; peptide 128 to 1 µM; comparison among the four peptides
Method: Figure 9 Hemolytic activity of TPF and the analog against horse red blood cell. The percentage of hemolysis was calculated with the absorbance at 570 nm, compared with PBS-treated red blood cells. The error bar represents SD of five replicates.
The hemolytic activity of each peptide was measured by incubating a range of final peptide concentrations from 128 to 1 µM in a two-fold dilution in a 2% suspension of the horse erythrocytes, as described in a previous study. The absorbance of hemoglobin released from red blood cells was detected at 570 nm. The percentage of hemolysis was calculated by the comparison to the 1% Triton X-100 treated red blood cells.

[14] = Preliminary observation of solubility / hydrogel formation in PBS; type: physicochemical; conditions: peptide 10 mg/mL in PBS
Method: After the identification of TPF, the chemical synthesis of TPF was performed successfully. […] Therefore, we synthesized the des-Phe1 TPF to investigate the correlation between oligomerize effect and bioactivities. […] Therefore, we further substituted Phe with Trp and D-Trp to reveal the relationship between the oligomerization effect and the zipper motif and the influence on bioactivities (Table 1). The correct synthesis of peptides had been checked by MALDI-TOF mass spectrometry (Supplementary Figure S6) and synthetic yields were calculated (Supplementary Figure S7).

[15] = Observation of aggregation: turbidity (absorbance at 600 nm) in media and salt solutions; type: physicochemical; conditions: absorbance 600 nm, three replicates
Method: Figure 3 The absorbance of TPF and the analogs prepared in (a) a series of culture media, including PBS, RPMI1640, RPMI1640 with 10% FBS, TSB, and MHB; 0.25, 0.5, and 1 M of (b) Na2HPO4, (c) CaCl2, and (d) MgCl2 solutions. Peptide solutions were prepared from 1 mg/mL, and the wavelength was set as 600 nm. The error bar represents the standard deviation (SD) with three replicates.
The method was followed the previous study with modifications. The purified peptides were prepared at 10 mg/mL in water and subsequently diluted with different solutions, including PBS, RPMI1640, RPMI1640 with 10% FBS, TSB, MHB, Na2HPO4 (0.25, 0.5, and 1 M), CaCl2 (0.25, 0.5, and 1 M), and MgCl2 (0.25, 0.5, and 1 M), in a 96-well plate to achieve the final concentration of 1 mg/mL. The turbidity of each well was detected using the absorbance at 600 nm by a plate reader. The peptides dissolved in water were applied as negative control.

[16] = E. faecalis NCTC 12697, broth dilution in MHB pH 7.4, peptide 128 to 1 µM
[17] = E. coli NCTC 10418, broth dilution in MHB pH 7.4, peptide 128 to 1 µM
[18] = K. pneumoniae ATCC 43816, broth dilution in MHB pH 7.4, peptide 128 to 1 µM
[19] = P. aeruginosa ATCC 27853, broth dilution in MHB pH 7.4, peptide 128 to 1 µM
[20] = S. aureus NCTC 10788, broth dilution in MHB pH 7.4, peptide 128 to 1 µM two-fold dilution
[21] = MRSA NCTC 12493, broth dilution in MHB pH 7.4, peptide 128 to 1 µM

## CC[C@H](C)[C@H](NC(=O)[C@H](CC(C)C)NC(=O)[C@@H]1CCCN1C(=O)[C@@H](N)CC(C)C)C(=O)N[C@@H](C)C(=O)NCC(=O)N[C@@H](CC(C)C)C(=O)N[C@H](Cc1c[nH]c2ccccc12)C(=O)NCC(=O)N[C@@H](CCCCN)C(=O)N[C@H](C(=O)N[C@H](Cc1c[nH]c2ccccc12)C(N)=O)[C@@H](C)CC [dW-des-Phe1 TPF] (H-LPLIAGL[dW]GKI[dW]-NH2; N-terminus assumed)
[1]; NCTC 12697, pH 7.4
  MBC: > 128 µM
  MIC: > 128 µM
[2]; NCTC 10418, pH 7.4
  MBC: > 128 µM
  MIC: > 128 µM
[3]; ATCC 43816, pH 7.4
  MBC: > 128 µM
  MIC: > 128 µM
[4]; ATCC 27853, pH 7.4
  MBC: > 128 µM
  MIC: > 128 µM
[5]; NCTC 10788, pH 7.4
  MBC: 64 µM (≈ 87.4 µg/mL)
  MIC: 64 µM (≈ 87.4 µg/mL)
[6]; NCTC 12493, pH 7.4
  MBC: > 128 µM
  MIC: > 128 µM
[7]; biofilm
  MBIC: >128/>128 µM
[8]; mature biofilm, 48 h
  MBEC: >128/>128 µM
[9]; biofilm
  MBIC: >128/>128 µM
[10]; mature biofilm, 48 h
  MBEC: >128/>128 µM
[11]
  Helix Content % DPPC: 8.3%
  Helix Content % DPPG/DPPE: 0.5%
  Helix Content % 50% TFE: 3.0%
[12]
  order of retention time (RP-HPLC, used as estimate of overall hydrophobicity): TPF> des-Phe1 TPF> W-des-Phe1 TPF> dW-des-Phe1 TPF

## FLPLIAGLFGKIF-NH2 [TPF]
[1]; [16]
  MBC: 16 µM
  MIC: 16 µM
[2]; [17]
  MBC: > 128 µM
  MIC: > 128 µM
[3]; [18]
  MBC: > 128 µM
  MIC: > 128 µM
[4]; [19]
  MBC: > 128 µM
  MIC: > 128 µM
[5]; [20]
  MBC: 32 µM
  MIC: 4 µM
[6]; [21]
  MBC: 4 µM
  MIC: 4 µM
[7]; MRSA, 5 × 10^5 CFU/mL with peptide, 37 °C, crystal violet, absorbance 595 nm
  MBIC: 4 µM
[8]; MRSA, 48 h mature biofilm treated with peptide 37 °C, 24 h, crystal violet, absorbance 595 nm
  MBEC: 16 µM
[9]; S. aureus, 5 × 10^5 CFU/mL with peptide, 37 °C, crystal violet, absorbance 595 nm
  MBIC: 4 µM
[10]; S. aureus, 48 h mature biofilm treated with peptide 37 °C, 24 h, crystal violet, absorbance 595 nm
  MBEC: 32 µM
[13]
  hemolytic activity (in words): strongest hemhemolytic activity
[14]
  solubility in PBS: significantly decreased

## LPLIAGLWGKIW-NH2 [W-des-Phe1 TPF]
[1]; NCTC 12697, pH 7.4
  MBC: 128 µM
  MIC: 128 µM
[2]; NCTC 10418, pH 7.4
  MBC: 128 µM
  MIC: 128 µM
[3]; ATCC 43816, pH 7.4
  MBC: 128 µM
  MIC: 128 µM
[4]; ATCC 27853, pH 7.4
  MBC: > 128 µM
  MIC: > 128 µM
[5]; NCTC 10788, pH 7.4
  MBC: 32 µM
  MIC: 32 µM
[6]; NCTC 12493, pH 7.4
  MBC: 128 µM
  MIC: 128 µM
[7]; biofilm
  MBIC: 128/>128 µM
[8]; mature biofilm, 48 h
  MBEC: 128/>128 µM
[9]; biofilm
  MBIC: 64 µM
[10]; mature biofilm, 48 h
  MBEC: > 128 µM
[11]
  Helix Content % DPPC: 10.1%
  Helix Content % DPPG/DPPE: 26.9%
  Helix Content % 50% TFE: 27.7%
[15]; peptide 1 mg/mL diluted from 10 mg/mL in water, PBS, RPMI1640, RPMI1640 with 10% FBS, TSB, MHB
  turbidity in culture media: increased outstandingly
[15]; peptide 1 mg/mL, 0.25, 0.5 and 1 M Na2HPO4
  salting-out effect in Na2HPO4 solutions: strongest salting-out effect
[12]
  order of retention time (RP-HPLC, used as estimate of overall hydrophobicity): TPF> des-Phe1 TPF> W-des-Phe1 TPF> dW-des-Phe1 TPF
